From patent US5747466A, “3-deoxy-3-descladinose derivatives of erythromycins A and B” (Abbott Laboratories, priority 1996, dated 1998)

Key:
Test in all cases: In vitro antibacterial activity (MIC), agar dilution
[1] = system: PSEUDOMONAS AERUGINOSA DPHD-5263; assay type: cell-based; conditions: P. aeruginosa DPHD-5263; BHI agar, 35-37 °C, 20-24 h
[2] = system: PSEUDOMONAS AERUGINOSA 5007; assay type: cell-based; conditions: P. aeruginosa 5007; BHI agar, 35-37 °C, 20-24 h
[3] = system: ESCHERICHIA COLI KNK 437; assay type: cell-based; conditions: E. coli KNK 437; BHI agar, 35-37 °C, 20-24 h
[4] = system: M[…] ATCC 4698; assay type: cell-based, Micrococcus luteus; conditions: M. luteus ATCC 4698; BHI agar, 35-37 °C, 20-24 h
Description: (§1) Representative compounds of the present invention were assayed in vitro for antibacterial activity as follows: Twelve petri dishes containing successive aqueous dilutions of the test compound mixed with 10 mL of sterilized Brain Heart Infusion (BHI) agar (Difco 0418-01-5) were prepared. Each plate was inoculated with 1:100 (or 1:10 for slow-growing strains, such as Micrococcus and Streptococcus) dilutions of up to 32 different microorganisms, using a Steers replicator block. The inoculated plates were incubated at 35°-37° C. for 20 to 24 hours. In addition, a control plate, using BHI agar containing no test compound, was prepared and incubated at the beginning and end of each test.
(§2) An additional plate containing a compound having known susceptibility patterns for the organisms being tested and belonging to the same antibiotic class as the test compound was also prepared and incubated as a further control, as well as to provide test-to-test comparability. Erythromycin A was used for this purpose.
(§3) After incubation, each plate was examined. The minimum inhibitory concentration (MIC) was defined as the lowest concentration of drug yielding no growth, a slight haze, or sparsely isolated colonies on the inoculum spot as compared to the growth control.

[5] = system: M[…] ATCC 9341; assay type: cell-based, Micrococcus luteus; conditions: M. luteus ATCC 9341; BHI agar, 35-37 °C, 20-24 h
Description: as §1, §2, §3

[6] = system: STAPHYLOCOCCUS AUREUS CMX 553; assay type: cell-based; conditions: S. aureus CMX 553; BHI agar, 35-37 °C, 20-24 h
[7] = system: STAPHYLOCOCCUS AUREUS CMX 642A; assay type: cell-based; conditions: S. aureus CMX 642A; BHI agar, 35-37 °C, 20-24 h
[8] = system: STAPHYLOCOCCUS AUREUS ATCC 6538P; assay type: cell-based; conditions: S. aureus ATCC 6538P; BHI agar, 35-37 °C, 20-24 h
[9] = system: PSEUDOMONAS AERUGINOSA DPHD-2862; assay type: cell-based; conditions: P. aeruginosa DPHD-2862; BHI agar, 35-37 °C, 20-24 h
[10] = system: STREPTOCOCCUS PYOGENES PIU 2548; assay type: cell-based; conditions: S. pyogenes PIU 2548; BHI agar, 35-37 °C, 20-24 h
[11] = system: STAPHYLOCOCCUS AUREUS 1775; assay type: cell-based; conditions: S. aureus 1775; BHI agar, 35-37 °C, 20-24 h
[12] = system: ENTEROBACTER AEROGENES ATCC 13048; assay type: cell-based; conditions: E. aerogenes ATCC 13048; BHI agar, 35-37 °C, 20-24 h
[13] = system: EN[…] ATCC 8043; assay type: cell-based, Enterococcus faecium; conditions: E. faecium ATCC 8043; BHI agar, 35-37 °C, 20-24 h
Description: as §1, §2, §3

[14] = system: ESCHERICHIA COLI DC-2; assay type: cell-based; conditions: E. coli DC-2; BHI agar, 35-37 °C, 20-24 h
[15] = system: ESCHERICHIA COLI H560; assay type: cell-based; conditions: E. coli H560; BHI agar, 35-37 °C, 20-24 h
[16] = system: PSEUDOMONAS AERUGINOSA K799/WT; assay type: cell-based; conditions: P. aeruginosa K799/WT; BHI agar, 35-37 °C, 20-24 h
[17] = system: STR[…] 508; assay type: cell-based, Streptococcus agalactiae; conditions: S. agalactiae CMX 508; BHI agar, 35-37 °C, 20-24 h
Description: as §1, §2, §3

[18] = system: STAPHYLOCOCCUS AUREUS A5177; assay type: cell-based; conditions: S. aureus A5177; BHI agar, 35-37 °C, 20-24 h
[19] = system: CANDIDA ALBICANS CCH 442; assay type: cell-based; conditions: C. albicans CCH 442; BHI agar, 35-37 °C, 20-24 h
[20] = system: STREPTOCOCCUS PYOGENES 930; assay type: cell-based; conditions: S. pyogenes 930; BHI agar, 35-37 °C, 20-24 h
[21] = system: STREPTOCOCCUS BOVIS A-5169; assay type: cell-based; conditions: S. bovis A-5169; BHI agar, 35-37 °C, 20-24 h
[22] = system: PSEUDOMONAS AERUGINOSA K799/61; assay type: cell-based; conditions: P. aeruginosa K799/61; BHI agar, 35-37 °C, 20-24 h
[23] = system: NOCARDIA ARSTEROIDES ATCC 9970; assay type: cell-based; conditions: Nocardia ATCC 9970; BHI agar, 35-37 °C, 20-24 h
[24] = system: STAPHYLOCOCCUS AUREUS A-5278; assay type: cell-based; conditions: S. aureus A-5278; BHI agar, 35-37 °C, 20-24 h
[25] = system: STREPTOCOCCUS PYOGENES EES61; assay type: cell-based; conditions: S. pyogenes EES61; BHI agar, 35-37 °C, 20-24 h

| SMILES | minimum inhibitory concentration (MIC) [1] | minimum inhibitory concentration (MIC) [2] | minimum inhibitory concentration (MIC) [3] | minimum inhibitory concentration (MIC) [4] | minimum inhibitory concentration (MIC) [5] | minimum inhibitory concentration (MIC) [6] | minimum inhibitory concentration (MIC) [7] | minimum inhibitory concentration (MIC) [8] | minimum inhibitory concentration (MIC) [9] | minimum inhibitory concentration (MIC) [10] | minimum inhibitory concentration (MIC) [11] | minimum inhibitory concentration (MIC) [12] | minimum inhibitory concentration (MIC) [13] | minimum inhibitory concentration (MIC) [14] | minimum inhibitory concentration (MIC) [15] | minimum inhibitory concentration (MIC) [16] | minimum inhibitory concentration (MIC) [17] | minimum inhibitory concentration (MIC) [18] | minimum inhibitory concentration (MIC) [19] | minimum inhibitory concentration (MIC) [20] | further results |
| --- | --- | --- | --- | --- | --- | --- | --- | --- | --- | --- | --- | --- | --- | --- | --- | --- | --- | --- | --- | --- | --- |
| CC[C@H]1OC(=O)[C@H](C)C[C@H](C)[C@@H](O[C@@H]2O[C@H](C)C[C@H](N(C)C)[C@H]2O)[C@](C)(OC)C[C@@H](C)C(=NOCOCCOC)[C@H](C)[C@@H](O)[C@]1(C)O [Ex. 8] | 100 | > 100 | 100 | 0.2 | 0.02 | 0.2 | 0.2 | 0.1 | 100 | 6.2 | > 100 | > 100 | 0.05 | 100 | 25 | 100 | 0.02 | 1.56 | > 100 | > 100 | minimum inhibitory concentration (MIC) [21]: 0.02; minimum inhibitory concentration (MIC) [22]: 1.56; minimum inhibitory concentration (MIC) [23]: 0.05; minimum inhibitory concentration (MIC) [24]: > 100; minimum inhibitory concentration (MIC) [25]: 0.02 |
| CC[C@H]1OC(=O)[C@H](C)C[C@H](C)[C@@H](O[C@@H]2O[C@H](C)C[C@H](N(C)C)[C@H]2O)[C@](C)(OC)C[C@@H](C)C(=O)[C@H](C)[C@H]2N(CCCCc3ccccc3)C(=O)O[C@]12C [Ex. 4] | 100 | > 100 | > 100 | 1.56 | 1.56 | 1.56 | 1.56 | 1.56 | > 100 | 0.2 | 50 | > 100 | 0.39 | 50 | 25 | 100 | 0.1 | 1.56 | 100 | 6.2 | minimum inhibitory concentration (MIC) [21]: 0.02; minimum inhibitory concentration (MIC) [22]: 12.5; minimum inhibitory concentration (MIC) [23]: 3.1; minimum inhibitory concentration (MIC) [24]: 50; minimum inhibitory concentration (MIC) [25]: 0.05 |
